One block for each compound: values may come before it.
Test system: 282377-053-R-J1-PDC complex spheroids, viability
Experiment: Anticancer human tumor 282377-053-R-J1-PDC patient-derived colon adenocarcinoma cell line growth inhibition [GQUAD]
Details: for IC50: curve of first compound; for viability, T/C: stronger effect = lower value
Procedure, shortened: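 Tumor cells were grown as complex spheroids with HUVEC endothelial cells and mesenchymal stem cells as stroma. G-quadruplex stabilizers were combined with targeted agents over half-log dilutions from near the clinical Cmax, or from 10 microM.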

[1] = second compound 0.0316 µM, first compound 0.0316 µM
[2] = second compound 0.0316 µM, first compound 0.1 µM
[3] = second compound 0.0316 µM, first compound 0.316 µM
[4] = second compound 0.0316 µM, first compound 1 µM
[5] = second compound 0.0316 µM, first compound 3.16 µM
[6] = second compound 0.0316 µM, first compound 10 µM
[7] = second compound 0.1 µM, first compound 0.0316 µM
[8] = second compound 0.1 µM, first compound 0.1 µM
[9] = second compound 0.1 µM, first compound 0.316 µM
[10] = second compound 0.1 µM, first compound 1 µM
[11] = second compound 0.1 µM, first compound 3.16 µM
[12] = second compound 0.1 µM, first compound 10 µM
[13] = second compound 0.316 µM, first compound 0.0316 µM
[14] = second compound 0.316 µM, first compound 0.1 µM
[15] = second compound 0.316 µM, first compound 0.316 µM
[16] = second compound 0.316 µM, first compound 1 µM
[17] = second compound 0.316 µM, first compound 3.16 µM
[18] = second compound 0.316 µM, first compound 10 µM
[19] = second compound 1 µM, first compound 0.0316 µM
[20] = second compound 1 µM, first compound 0.1 µM
[21] = second compound 1 µM, first compound 0.316 µM
[22] = second compound 1 µM, first compound 1 µM
[23] = second compound 1 µM, first compound 3.16 µM
[24] = second compound 1 µM, first compound 10 µM
[25] = second compound 3.16 µM, first compound 0.0316 µM
[26] = second compound 3.16 µM, first compound 0.1 µM
[27] = second compound 3.16 µM, first compound 0.316 µM
[28] = second compound 3.16 µM, first compound 1 µM
[29] = second compound 3.16 µM, first compound 3.16 µM
[30] = second compound 3.16 µM, first compound 10 µM
[31] = second compound 10 µM, first compound 0.0316 µM
[32] = second compound 10 µM, first compound 0.1 µM
[33] = second compound 10 µM, first compound 0.316 µM
[34] = second compound 10 µM, first compound 1 µM
[35] = second compound 10 µM, first compound 3.16 µM
[36] = second compound 10 µM, first compound 10 µM
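Further: spheroids exposed to compounds for 7 days before readout.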
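Wherever viability, T/C is given: percent of vehicle DMSO control viability with 100% = untreated-like growth.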

IC50 (second compound 0.0316 µM): > 10 µM | IC50 (second compound 0.1 µM): > 10 µM | IC50 (second compound 0.316 µM): > 10 µM | IC50 (second compound 1 µM): > 10 µM | IC50 (second compound 3.16 µM): 4.14 µM | IC50 (second compound 10 µM): < 0.0316 µM
Structure (SMILES): C#Cc1c(F)ccc2cc(O)cc(-c3ncc4c(N5CC6CCC(C5)N6)nc(OCC56CCCN5CC(F)C6)nc4c3F)c12 (stereo unspecified) + Cc1cnc(CNC(=O)c2c(=O)c3ccc(N4CCCN(C)CC4)nc3n3c2sc2ccccc23)cn1
viability, T/C [1]: 102% | viability, T/C [2]: 87.4% | viability, T/C [3]: 122% | viability, T/C [4]: 83.2% | viability, T/C [5]: 100% | viability, T/C [6]: 94.7% | viability, T/C [7]: 127% | viability, T/C [8]: 109% | viability, T/C [9]: 89.9% | viability, T/C [10]: 86% | viability, T/C [11]: 120% | viability, T/C [12]: 93.5% | viability, T/C [13]: 86.5% | viability, T/C [14]: 102% | viability, T/C [15]: 85.5% | viability, T/C [16]: 77.1% | viability, T/C [17]: 91.3% | viability, T/C [18]: 83.9% | viability, T/C [19]: 64.3% | viability, T/C [20]: 47.6% | viability, T/C [21]: 47.2% | viability, T/C [22]: 59.2% | viability, T/C [23]: 71.8% | viability, T/C [24]: 58.5% | viability, T/C [25]: 46.5% | viability, T/C [26]: 53% | viability, T/C [27]: 58.5% | viability, T/C [28]: 52.2% | viability, T/C [29]: 51.7% | viability, T/C [30]: 44.1% | viability, T/C [31]: 36.8% | viability, T/C [32]: 40.3% | viability, T/C [33]: 52.9% | viability, T/C [34]: 46% | viability, T/C [35]: 45.7% | viability, T/C [36]: 37.8%

Structure (SMILES): CC(C)n1c(=O)n(C)c2cnc3cc(F)c(-c4ccc(OCCCN5CCCCC5)nc4)cc3c21 + Cc1[nH]c2ccc(F)cc2c1-c1nc2c3cccnc3c3ncccc3c2[nH]1
IC50 (second compound 0.0316 µM): > 10 µM | IC50 (second compound 0.1 µM): > 10 µM | IC50 (second compound 0.316 µM): > 10 µM | IC50 (second compound 1 µM): > 10 µM | IC50 (second compound 3.16 µM): 6.16 µM | IC50 (second compound 10 µM): 0.0435 µM | viability, T/C [1]: 123% | viability, T/C [2]: 91.5% | viability, T/C [3]: 123% | viability, T/C [4]: 104% | viability, T/C [5]: 101% | viability, T/C [6]: 94.1% | viability, T/C [7]: 101% | viability, T/C [8]: 118% | viability, T/C [9]: 94.2% | viability, T/C [10]: 88.6% | viability, T/C [11]: 118% | viability, T/C [12]: 92.6% | viability, T/C [13]: 132% | viability, T/C [14]: 115% | viability, T/C [15]: 100% | viability, T/C [16]: 112% | viability, T/C [17]: 108% | viability, T/C [18]: 91.5% | viability, T/C [19]: 106% | viability, T/C [20]: 116% | viability, T/C [21]: 107% | viability, T/C [22]: 112% | viability, T/C [23]: 98.4% | viability, T/C [24]: 93% | viability, T/C [25]: 89% | viability, T/C [26]: 78.8% | viability, T/C [27]: 86.7% | viability, T/C [28]: 66.3% | viability, T/C [29]: 73.6% | viability, T/C [30]: 36.5% | viability, T/C [31]: 53% | viability, T/C [32]: 40.7% | viability, T/C [33]: 44.3% | viability, T/C [34]: 29.6% | viability, T/C [35]: 23.9% | viability, T/C [36]: 19%

IC50 (second compound 0.0316 µM): > 0.316 µM | IC50 (second compound 0.1 µM): > 0.316 µM | IC50 (second compound 0.316 µM): > 0.316 µM | IC50 (second compound 1 µM): 0.285 µM | IC50 (second compound 3.16 µM): 0.0327 µM | IC50 (second compound 10 µM): < 0.000999 µM
Structure (SMILES): Cn1ncnc1[C@H]1c2n[nH]c(=O)c3cc(F)cc(c23)N[C@@H]1c1ccc(F)cc1 + Cc1cnc(CNC(=O)c2c(=O)c3ccc(N4CCCN(C)CC4)nc3n3c2sc2ccccc23)cn1
viability, T/C (second compound 0.0316 µM, first compound 0.000999 µM): 111% | viability, T/C (second compound 0.0316 µM, first compound 0.00316 µM): 87.7% | viability, T/C (second compound 0.0316 µM, first compound 0.00999 µM): 104% | viability, T/C [1]: 107% | viability, T/C (second compound 0.0316 µM, first compound 0.0999 µM): 95.9% | viability, T/C [3]: 102% | viability, T/C (second compound 0.1 µM, first compound 0.000999 µM): 109% | viability, T/C (second compound 0.1 µM, first compound 0.00316 µM): 101% | viability, T/C (second compound 0.1 µM, first compound 0.00999 µM): 98.7% | viability, T/C [7]: 94% | viability, T/C (second compound 0.1 µM, first compound 0.0999 µM): 115% | viability, T/C [9]: 116% | viability, T/C (second compound 0.316 µM, first compound 0.000999 µM): 86.1% | viability, T/C (second compound 0.316 µM, first compound 0.00316 µM): 84.1% | viability, T/C (second compound 0.316 µM, first compound 0.00999 µM): 88.4% | viability, T/C [13]: 93.2% | viability, T/C (second compound 0.316 µM, first compound 0.0999 µM): 79% | viability, T/C [15]: 71.9% | viability, T/C (second compound 1 µM, first compound 0.000999 µM): 65.7% | viability, T/C (second compound 1 µM, first compound 0.00316 µM): 66.1% | viability, T/C (second compound 1 µM, first compound 0.00999 µM): 52.5% | viability, T/C [19]: 62.5% | viability, T/C (second compound 1 µM, first compound 0.0999 µM): 51.5% | viability, T/C [21]: 49.4% | viability, T/C (second compound 3.16 µM, first compound 0.000999 µM): 56.6% | viability, T/C (second compound 3.16 µM, first compound 0.00316 µM): 47.2% | viability, T/C (second compound 3.16 µM, first compound 0.00999 µM): 51.5% | viability, T/C [25]: 49.5% | viability, T/C (second compound 3.16 µM, first compound 0.0999 µM): 52.3% | viability, T/C [27]: 46.2% | viability, T/C (second compound 10 µM, first compound 0.000999 µM): 43.3% | viability, T/C (second compound 10 µM, first compound 0.00316 µM): 44.1% | viability, T/C (second compound 10 µM, first compound 0.00999 µM): 52.4% | viability, T/C [31]: 45.1% | viability, T/C (second compound 10 µM, first compound 0.0999 µM): 51% | viability, T/C [33]: 46.7%

Source: PubChem BioAssay AID2060501 (Molecular Pharmacology Branch, DTP, NCI, 2025)
